Where no end group is shown, it is not given here.
Experiments:
cynomolgus monkeys = experiment: ELISA antibody titers, monkey study No.00213515; assay type: in vivo, Macaca fascicularis; settings: monkey 1st set, 0.5, 2, 5 mg/dose, 2-week interval, ISA 720
Method: The non-human primate studies were carried out by the Charles River Laboratories (Ashland, OH USA). All the cynomolgus monkeys (Macaca fascicularis of Chinese origin) were obtained from Charles River Laboratories (Houston, TX, USA). In brief, the animals were approximately 2–4 years old and at the body weight between 2.2 and 3.1 kg at the initial dosing. The animals were kept at the temperature between 19°C and 24°C, humidity 30%–70%, and with 12 h light and 12 h dark light cycle. The Good manufacturing practice (GMP)-manufactured vaccine was used in the non-human primate study. […] Similar to mouse and dog dosing preparation, after the emulsion was prepared, a drop test was performed on each time of dosing to confirm that the emulsion had been prepared properly. […] All the animals’ body weights were monitored weekly after receiving. […]
Enzyme-linked immunosorbent assay (ELISA) was performed per our lab standard procedure. […] After washing, the antibody was detected using 50 μl of 0.15% H2O2 in 24 mM of citric acid and 5 mM of the sodium phosphate buffer (pH5.2) with 0.5 mg/ml 2, […] (3-ethylbenzthiazole- 6-sulfonic acid, ABTS; Sigma, St. Louis, MO, USA) as the chromophore. […] Absorbance was read at 415 nm using an ELISA microplate reader (SPECTRAmax PLUS384; Molecular Devices, San Jose, CA, USA). The highest dilution at the cutoff absorbance 0.2 were determined as the antibody titer. […]

beagle dogs = experiment: Safety observations in immunized beagle dogs; assay type: in vivo, dog
Method: In brief, the beagle dogs were purchased from Covance Research Products (Cumberland, VA, USA) and were housed in the Ohio State University Veterinarian Facility Institutional Animal Care Facility. The dogs were housed at 19°C−24°C room temperature with approximately 70% humidity, and 12 h light and 12 h dark–light cycle. The dogs’ body weights were at least 7.5 kg when they received the first immunization. […] The dogs received a total of 4 doses, immunization was done at the rear thigh with two sites of injections, the bleed was collected as indicated time points to monitor the antibody titers, and the body weight of each dog was monitored closely (see Figures 3B, C for detail).
This study was designed to monitor the kinetics of how quickly the antibody levels to MVF-PD-1(92-110) diminished after the dosing was stopped. The recall of an antibody response was also tested after re-challenge. Four beagle dogs were used in this study of MVF-PD-1(92-110) peptide cancer vaccine. Dogs #1, #2, and #3 were treated with MVF-PD-1(92-110) emulsified with nor-MDP and ISA 720 using different doses ( Figure 3A ). Dog#1 was treated with 1.0 mg low-dose peptide, dog#2 was treated with 1.5 mg medium-dose peptide, and dog #3 was treated with 3.0 mg high-dose peptide. The negative control dog #10 was only treated with the MVF peptide emulsified with nor-MDP and Montanide ISA720. Dogs were immunized 4 times designated as 1Y, 2Y, 3Y, and 4Y at Day 0, Day 35, Day 56, and 6 months after primary immunization, respectively. Blood was collected every 2 weeks, except for the first collection, which was 3 weeks after the primary immunization and 1 week after 2Y and 3Y immunization ( Figure 3B ). The sera were used to monitor the antibody titers. We monitored the beagle dogs’ body weight closely during the immunization period ( Figure 3C ).
• a) Beagle dogs were immunized with MVF-PD-1 (92-110) (3 dogs with 1 dog each at the doses of 1, 1.5, and 3 mg/dose). • b) All dogs administered with MVF-PD-1 (92-110) had high polyclonal anti-MVF-PD-1 (92-110) antibody titers. […] These injection site lesions were mostly attributed to the high volume of Montanide ISA 720 VG used in this study.

nivolumab = settings: surface plasmon resonance; cited from earlier work
Method: (§1) The PD-1 amino acids 92-110 (^92[…]^101[…]^110) chosen for evaluation were selected based on the crystal structure of PD-1:PD-L1. This PD-1 sequence was synthesized as a chimeric construct with a promiscuous T-cell helper epitope derived from the measles virus fusion protein (MVF, amino acids 288-302). The specificity of the selected PD-1 peptide was determined by surface plasmon resonance spectroscopy.

rhPD-L1 = settings: surface plasmon resonance; cited from earlier work
Method: as §1

Question: Which results are given for “KLLSLIKGVIVHRLEGVEGPSLGAISLAPKAQIKESLRAEL [MVF-PD-1(92-110)]”?
Answer: immunogenicity (summary) (cynomolgus monkeys): high immunogenicity; dogs with adverse local reaction (lesions at or near the IM injection site) (beagle dogs; 1, 1.5 and 3 mg/dose, 1 dog each, lesions resolved within a few weeks after dosing ceased, mostly attributed to high volume of Montanide ISA 720 VG): Two out of three; body weight by the end of the experiment compared with the initial weight (beagle dogs; all dogs): gained some weight; induction of autoimmune responses (beagle dogs; beagle dogs): has not been observed; safety (summary) (beagle dogs; dog): safe; recognize and bind nivolumab (nivolumab): able to recognize and bind; recognize and bind rhPD-L1 (rhPD-L1): able to recognize and bind
